Experimental data taken from patent publication US10258602B2 (Ocera Therapeutics, Inc., priority 2007, dated 2019).
Read-outs that look alike come from different tables or passages of the source.

Tests used:
CYP2E1 = biological target: T1, CYP2E1 (Homo sapiens, UniProt P05181); test: Cytochrome P450 inhibition, CYP2E1; format: in vitro ADME; conditions: read-out: IC50 2E1
T1 construct: purchased BD Gentest, Becton-Dickinson (Supersomes); host or cells: insect cells
Text: (§1) K. Assay for Cytochrome P450 Inhibition
(§2) Cytochrome P450 enzymes are implicated in the phase I metabolism of drugs. The majority of drug-drug interactions are metabolism-based and, moreover, these interactions typically involve inhibition of cytochrome P450s. Six CYP450 enzymes (CYP1A2, CYP2C8, CYP2C9, CYP2C19, CYP2D6 and CYP3A4) appear to be commonly responsible for the metabolism of most drugs and the associated drug-drug interactions. Assays to determine the binding of compounds of the invention to the various metabolically important isoforms of cytochrome P450 metabolizing enzymes are commercially available, for example NoAb BioDiscoveries (Mississaugua, ON, Canada) and Absorption Systems (Exton, Pa., USA). As well, a number of appropriate methods have been described or reviewed in the literature. (White, R. E. Ann. Rev. Pharmacol. Toxicol. 2000, 40, 133-157; Li, A. P. Drug. Disc. Today 2001, 6, 357-366; Turpeinen, M.; Korhonen, L. E. Tolonen, A.; et al. Eur. J. Pharm. Sci, 2006, 29, 130-138.)
(§3) The key aspects of the experimental method were as follows: • 1. […] Assays monitored, via fluorescence detection, the formation of a fluorescent metabolite following incubation of the microsomes with a specific CYP substrate. • 3. Compounds of the present invention were tested in duplicate samples at eight test concentrations using 3-fold serial dilutions (concentration range of 0.0457 to 100 μM). • 4. For each CYP-450 enzyme, a specific inhibitor was tested in duplicate at eight concentrations as a positive control. • 5. The concentration of the inhibitor or test compound that inhibited metabolite formation by 50% (IC50) was calculated by non-linear regression analysis of the % inhibition vs. log concentration (M) curve.

CYP2A6 = biological target: T2, CYP2A6 (Homo sapiens, UniProt P11509); test: Cytochrome P450 inhibition, CYP2A6; format: in vitro ADME; conditions: read-out: IC50 2A6
T2 construct: purchased BD Gentest, Becton-Dickinson (Supersomes); host or cells: insect cells
T2 sequence (P11509 1-494): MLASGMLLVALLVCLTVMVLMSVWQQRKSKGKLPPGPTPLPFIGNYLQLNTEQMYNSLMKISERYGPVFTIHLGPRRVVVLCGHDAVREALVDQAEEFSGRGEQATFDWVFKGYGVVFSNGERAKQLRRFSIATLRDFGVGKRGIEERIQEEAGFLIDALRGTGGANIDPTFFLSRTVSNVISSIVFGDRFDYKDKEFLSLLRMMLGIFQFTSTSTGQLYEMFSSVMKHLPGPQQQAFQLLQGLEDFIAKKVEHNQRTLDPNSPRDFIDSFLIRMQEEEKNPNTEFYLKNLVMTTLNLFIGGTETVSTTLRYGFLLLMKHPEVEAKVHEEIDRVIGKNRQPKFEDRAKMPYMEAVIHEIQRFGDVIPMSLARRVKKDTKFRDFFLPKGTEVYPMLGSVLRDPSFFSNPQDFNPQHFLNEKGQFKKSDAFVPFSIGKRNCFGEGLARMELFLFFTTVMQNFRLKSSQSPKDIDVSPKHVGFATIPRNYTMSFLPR
Text: as §1, §2, §3

CYP3A4 = biological target: T3, CYP3A4 (Homo sapiens, UniProt P08684); test: Cytochrome P450 inhibition, CYP3A4 (two substrates); format: in vitro ADME
T3 construct: purchased BD Gentest, Becton-Dickinson (Supersomes); host or cells: insect cells
Text: as §1, §2, §3

[1] = biological target: GHS-R1a receptor (human ghrelin receptor) (Homo sapiens, UniProt Q92847); test: Aequorin functional assay (ghrelin receptor), standard method B; format: cell-based
Text: B. Aequorin Functional Assay (Ghrelin Receptor)
See also U.S. patent application Ser. Nos. 11/149,512 and 11/149,731. (LePoul, E.; et al. J. Biomol. Screen. 2002, 7, 57-65; Bednarek, M. A.; et al. J. Med. Chem. 2000, 43, 4370-4376; Palucki, B. L.; et al. Bioorg. Med. Chem. Lett. 2001, 11, 1955-1957.) Functional activity at the gherlin receptor for representative compounds of the present invention is presented in the Examples.

[2] = system: rat stomach fundus strips; test: tissue or blood; conditions: read-out: EC50 values for contractility
Description: Fundus strips (approximately 0.4×1 cm) were cut from the stomach of adult male Wistar rats parallel to the circular muscle fibers. They were placed between two platinum ring electrodes, 1 cm apart (Radnoti, ADInstruments, USA) in 10 ml tissue baths containing Krebs solution bubbled with 5% CO2 in O2 and maintained at 37° C. Tissues were suspended under 1.5 g resting tension. Changes of tension were measured isometrically with force transducers and recorded with a PowerLab 8/30 data acquisition system (ADInstruments, USA). Tissues were allowed to equilibrate for 60 min during which time bath solutions were changed every 15 min.
EFS was achieved by applying 0.5 ms pulses, 5 Hz frequency, at a maximally effective voltage of 70 V. EFS was applied for 30 sec at 3 min intervals for a 30 min initial period. This initial period was separated by a 5 min interval with wash out of the bath solution. Then, a second period of stimulation was started. […] Responses to the agents were measured and expressed as % of the mean of three or four pre-drug responses to EFS. All compounds were dissolved at 1 mM in distilled water or MeOH, as stock solutions.

[3] = Plasma protein binding, rat plasma; format: in vitro ADME; conditions: test concentration 5 μg/mL
hGHS-R1a = biological target: T4, hGHS-R1a (Homo sapiens, UniProt Q92847); test: Activation-desensitization profile, Ca2+ flux in HEK293 cells stably expressing hGHS-R1a; format: cell-based; conditions: higher positive = less desensitization potential
T4 construct: expressed in transfected cells
Description: M. Activation-Desensitization Profile
It is well-known that agonists of G-protein coupled receptors can induce desensitization or tachyphylaxis, thereby limiting the potential of agents acting at the receptor as therapeutics for chronic use.
• 1. […] Agonist-induced Ca^+2 fluxes were measured after loading with Ca^+2 indicator Fluo-4-AM. • 3. […] Results

[4] = Plasma protein binding, human plasma (equilibrium dialysis); format: in vitro ADME; conditions: test concentration 5 μg/mL
Outline: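 Human plasma incubated with test article at several concentrations for 60 min at 37° C. Bound and unbound fractions separated by equilibrium dialysis; unbound concentration quantified by LC-MS or LC-MS-MS.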

Caco-2 cell layer = test: Caco-2 permeability; conditions: for Papp A to B: Caco-2, apical to basolateral; for Papp A to B / Papp B to A: 10 μM, 60 min, 37° C.; for Papp B to A: Caco-2, basolateral to apical; for BtoA/AtoB: Caco-2 ratio of Papp B to A over A to B
Description: L. Determination of Caco-2 Permeability
Fully differentiated cell monolayers can be used to assess the membrane transport properties of novel compounds.
Permeability across the Caco-2 cell layer was determined by growing the cells on a membrane placed between two (donor and acceptor) chambers. […] Permeability in this direction represents intestinal absorption. Permeability may also be determined from the basolateral to the apical side of the Caco-2 cell. A higher apical to basolateral Papp, compared to the basolateral to apical Papp, is indicative of carrier-mediated transport.
Permeability (10 μM) for compounds of the invention in the apical to basolateral and basolateral to apical direction were tested in duplicate. Samples will be collected from the donor and acceptor chambers at the beginning (0 min) and following 60 min of incubation at 37° C. and stored frozen at −70° C. until bioanalysis. Samples for each test compound generated from the Caco-2 permeability assay were further analyzed by LC-MS-MS. The permeability of [^3H]-mannitol and [^3H]-propranolol were determined in parallel as controls.
The permeability coefficient (Papp) of each compound and radiolabeled standard was determined using the following equation:
where dQ/dT represents the permeability rate, Ci denotes the initial concentration in the donor compartment, and A represents the surface area of the filter. Ci is determined from the mean concentration of duplicate samples taken prior to addition to the donor compartment. Permeability rates were calculated by plotting the cumulative amount of compound measured in the acceptor compartment over time and determining the slope of the line by linear regression analysis. The duplicate and mean apical to basolateral and basolateral to apical Papp's were reported for each compound and standard.

[5] = CYP3A4, substrate BFC, read-out: IC50 3A4 (BFC)
[6] = CYP3A4, substrate BQ, read-out: IC50 3A4 (BQ)

T3 sequence (P08684 whole entry): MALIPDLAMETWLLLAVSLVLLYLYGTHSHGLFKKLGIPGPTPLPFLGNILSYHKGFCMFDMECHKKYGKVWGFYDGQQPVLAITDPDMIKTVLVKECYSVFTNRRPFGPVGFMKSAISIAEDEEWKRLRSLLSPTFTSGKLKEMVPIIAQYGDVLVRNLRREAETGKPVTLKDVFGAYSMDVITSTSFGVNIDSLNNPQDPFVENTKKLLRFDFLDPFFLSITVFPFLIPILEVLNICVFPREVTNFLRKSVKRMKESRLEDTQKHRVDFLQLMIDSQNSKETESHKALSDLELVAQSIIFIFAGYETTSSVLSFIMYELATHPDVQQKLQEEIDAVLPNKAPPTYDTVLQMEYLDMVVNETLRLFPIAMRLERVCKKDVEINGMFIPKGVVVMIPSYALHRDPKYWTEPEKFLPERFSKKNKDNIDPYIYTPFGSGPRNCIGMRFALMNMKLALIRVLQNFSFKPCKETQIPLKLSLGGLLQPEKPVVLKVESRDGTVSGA
T1 sequence (P05181 whole entry): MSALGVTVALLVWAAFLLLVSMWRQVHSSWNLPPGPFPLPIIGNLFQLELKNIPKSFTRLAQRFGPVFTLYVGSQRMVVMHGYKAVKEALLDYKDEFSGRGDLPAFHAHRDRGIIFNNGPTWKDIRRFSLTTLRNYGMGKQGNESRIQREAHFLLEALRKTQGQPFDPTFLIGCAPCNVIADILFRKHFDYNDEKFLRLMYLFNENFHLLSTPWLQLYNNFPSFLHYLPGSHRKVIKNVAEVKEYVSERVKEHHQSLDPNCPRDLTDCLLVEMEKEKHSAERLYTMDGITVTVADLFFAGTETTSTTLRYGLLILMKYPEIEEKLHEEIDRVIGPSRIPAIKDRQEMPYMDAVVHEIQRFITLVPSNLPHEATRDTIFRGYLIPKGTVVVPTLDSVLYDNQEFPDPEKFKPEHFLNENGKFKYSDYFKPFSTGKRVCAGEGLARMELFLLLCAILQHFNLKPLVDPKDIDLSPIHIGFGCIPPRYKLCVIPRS
T4 sequence (Q92847 whole entry): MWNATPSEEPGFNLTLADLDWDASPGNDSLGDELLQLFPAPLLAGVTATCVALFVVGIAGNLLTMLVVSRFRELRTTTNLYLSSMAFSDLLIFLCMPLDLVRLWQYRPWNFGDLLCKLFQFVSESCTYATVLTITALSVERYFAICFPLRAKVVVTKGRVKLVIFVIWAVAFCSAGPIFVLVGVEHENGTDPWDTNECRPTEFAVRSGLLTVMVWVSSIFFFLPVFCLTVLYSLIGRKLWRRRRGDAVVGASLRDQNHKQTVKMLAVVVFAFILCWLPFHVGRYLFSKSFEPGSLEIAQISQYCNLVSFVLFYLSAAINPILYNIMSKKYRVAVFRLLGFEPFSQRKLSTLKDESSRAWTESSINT
Chain of GHS-R1a receptor (human ghrelin receptor) (Q92847 whole entry): as above

IC50 (CYP2E1) [µM] | IC50 (CYP2A6) [µM] | IC50 (CYP3A4; [5]) [µM] | IC50 (CYP3A4; [6]) [µM] | EC50 [1] [µM] | EC50 [2] [µM] | fraction unbound at 60 min, 5 μg/mL [3] | fraction unbound at 60 min, 5 μg/mL [4] | SMILES | Δ(activity-desensitization) (pEC50 − pDC50) (hGHS-R1a) | Papp A to B (Caco-2 cell layer) [cm/sec × 10^−6] | Papp B to A (Caco-2 cell layer) [cm/sec × 10^−6] | BtoA/AtoB (Caco-2 cell layer)
> 100 | > 100 | 23.3 | 6.1 | ≤ 0.05 | 0.15 | 0.16 | 0.007 | CC(C)C[C@H]1NC(=O)[C@@H](C)N(C)C(=O)[C@H](C2CC2)NC[C@@H](C)Oc2ccccc2CC[C@H](C)NC1=O [Compound 807] | 3.08 | – | – | –
> 100 | > 100 | 7.42 | 1.08 | – | – | – | – | CC(C)C[C@H]1NC(=O)[C@@H](C)N(C)C(=O)[C@H](C2CC2)NCCOc2cc(F)ccc2CCCNC1=O [Compound 810] | – | – | – | –
> 100 | > 100 | 18.7 | 8.9 | – | – | – | – | CC(C)CC1NC(=O)C(C)N(C)C(=O)C(C2CCCCC2)NCC(C)OC2CCCCC2CCCNC1=O (mixture of isomers) [Compound 828] | – | – | – | –
> 100 | > 100 | 14.2 | 4.15 | – | – | – | – | CC(C)C[C@H]1NC(=O)[C@@H](C)N(C)C(=O)[C@H](C2CC2)NCCOc2cc(F)ccc2CC[C@H](C)NC1=O [Compound 822] | – | – | – | –
> 100 | > 100 | 93.4 | 6.7 | – | – | – | – | CC(C)CC1NC(=O)C(C)N(C)C(=O)C(C2CC2)NCC(C)OC2CCCCC2CCCNC1=O (mixture of isomers) [Compound 825] | – | 113 | 123 | 1.08

SMILES | IC50 (CYP2E1) [µM] | IC50 (CYP2A6) [µM] | IC50 (CYP3A4; [5]) [µM] | IC50 (CYP3A4; [6]) [µM] | EC50 [1] [µM] | EC50 [2] [µM] | fraction unbound at 60 min, 5 μg/mL [3] | fraction unbound at 60 min, 5 μg/mL [4] | Δ(activity-desensitization) (pEC50 − pDC50) (hGHS-R1a) | Papp A to B (Caco-2 cell layer) [cm/sec × 10^−6] | Papp B to A (Caco-2 cell layer) [cm/sec × 10^−6] | BtoA/AtoB (Caco-2 cell layer)
C[C@@H]1C(=O)N[C@H](Cc2ccc(O)cc2)C(=O)NCCCc2ccc(F)cc2OCCN[C@@H](C2CC2)C(=O)N1C [Compound 809] | > 100 | > 100 | 6.61 | 1.53 | – | – | – | – | – | – | – | –
CC1NC(C2CC2)C(=O)N(C)C(C)C(=O)NC(Cc2ccc(O)cc2)C(=O)NCCCc2ccccc2OC1C (centres unmarked) [Compound 820] | > 100 | > 100 | 47.4 | 13.8 | – | – | – | – | – | – | – | –
C[C@@H]1C(=O)N[C@H](Cc2ccc(O)cc2)C(=O)NCCCc2cccc3c2O[C@H](CC3)CN[C@@H](C2CC2)C(=O)N1C [Compound 803] | > 100 | > 100 | – | 11.5 | – | – | – | – | – | 12.1 | 67.3 | 5.59
CC1CNC(C2CC2)C(=O)N(C)C(C)C(=O)NC(Cc2ccc(O)cc2)C(=O)NCCCC2CCCCC2O1 (mixture of isomers) [Compound 826] | > 100 | > 100 | 47.5 | 4.5 | – | – | – | – | 1.90 | 11.2 | 46.9 | 4.18
